Experimental data: US10214546B2, “Btk inhibitors” (MERCK SHARP & DOHME CORP., priority 2014, dated 2019)
Where two headings read alike, the source gives them in different places.

Key:
[1] = test system: adenosine uptake into HeLa cells; assay: [3H]Adenosine uptake assay in HeLa cells; type: cell-based; conditions: [3H]adenosine accumulation in HeLa cells, compound range 10 μM to 0.032 nM, read-out: ADU inhibition IC50
Method in brief: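 HeLa cells in HBSS + 5% FBS were preincubated 30 min at ambient temperature with compound (ten-point 1:3 series, 10 µM–[…] final), then given [3H]adenosine (added as a 500 nM solution) for 60 min. Cell-associated label was read by scintillating-plate proximity counting; IC50 from 4-parameter fit of cps versus log concentration.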

[2] = target: BTK enzyme (recombinant full-length BTK, hBTK) (Homo sapiens (Human), UniProt Q06187); assay: BTK enzymatic activity LANCE TR-FRET assay; type: biochemical; conditions: 50 pM hBTK, 25 μM ATP, 2 μM biotin-A5-peptide; compound range 1 μM to 0.017 nM; read-out: BTK binding IC50
BTK enzyme (recombinant full-length BTK, hBTK), sequence (Q06187 whole entry): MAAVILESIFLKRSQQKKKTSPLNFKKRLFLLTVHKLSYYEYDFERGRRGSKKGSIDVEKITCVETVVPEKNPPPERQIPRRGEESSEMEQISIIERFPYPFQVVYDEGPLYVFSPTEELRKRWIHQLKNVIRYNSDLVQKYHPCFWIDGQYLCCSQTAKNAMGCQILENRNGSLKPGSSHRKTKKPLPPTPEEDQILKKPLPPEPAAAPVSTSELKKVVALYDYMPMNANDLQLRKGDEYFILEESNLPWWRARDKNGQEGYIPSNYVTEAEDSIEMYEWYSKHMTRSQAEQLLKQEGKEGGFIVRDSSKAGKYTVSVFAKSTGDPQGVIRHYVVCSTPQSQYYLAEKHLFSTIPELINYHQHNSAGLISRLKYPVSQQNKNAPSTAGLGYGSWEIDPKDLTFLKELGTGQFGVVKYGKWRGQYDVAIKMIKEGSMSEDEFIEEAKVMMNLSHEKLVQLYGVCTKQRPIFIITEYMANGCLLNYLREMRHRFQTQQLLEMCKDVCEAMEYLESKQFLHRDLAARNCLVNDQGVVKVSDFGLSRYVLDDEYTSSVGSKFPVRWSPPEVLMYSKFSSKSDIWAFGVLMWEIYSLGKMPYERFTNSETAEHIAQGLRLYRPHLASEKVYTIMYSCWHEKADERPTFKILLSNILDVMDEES

| Compound | IC50 [1] [µM] | IC50 [2] [nM] | IC50 ([1]; Homo sapiens, HeLa) [µM] |
| --- | --- | --- | --- |
| COc1cc(C(C)(O)c2cccc(C(F)(F)F)c2)ccc1-c1nc([C@@H]2CC[C@@H]3N(C2)C(=O)CC3(C)C)n2ccnc(N)c12 (stereo partly drawn) [Example 205, (6R,8aS)-6-[8-amino-1-(4-{1-hydroxy-1-[3-(trifluoromethyl)phenyl]ethyl}-2-methoxyphenyl)imidazo [1,5-a]pyrazin-3-yl]-1,1-dimethylhexahydroindolizin-3(2H)-one] | 3.5 | 2 |  |
| COc1cc([C@@](C)(O)c2cccc(C(F)(F)F)c2)ccc1-c1nc([C@@H]2CC[C@H]3CC(C)(C)C(=O)N3C2)n2ccnc(N)c12 [Example 206, (6R,8aS)-6-[8-amino-1-(4-{(1S)-1-hydroxy-1-[3-(trifluoromethyl)phenyl]ethyl}-2-methoxyphenyl)imidazo [1,5-a]pyrazin-3-yl]-2,2-dimethylhexahydroindolizin-3(2H)-one] |  | 3.8 | 5.46 |
| CC(O)(c1cccc(C(F)F)c1)c1ccc(-c2nc([C@@H]3CC[C@H]4CCC(=O)N4C3)n3c(F)cnc(N)c23)c(F)c1 (stereo partly drawn) [Example 207, (6R,8aS)-6-[8-amino-1-(4-{1-[3-(difluoromethyl)phenyl]-1-hydroxyethyl}-2-fluorophenyl)-5-fluoroimidazo[1,5-a]pyrazin-3-yl]hexahydroindolizin-3(2H)-one] | 0.933 | 459 |  |
| CC(O)(c1cccc(C(F)F)c1)c1ccc(-c2nc([C@@H]3CC[C@H]4CCC(=O)N4C3)n3c(F)cnc(N)c23)c(F)c1 (stereo partly drawn) [Example 208, (6R,8aS)-6-(8-amino-1-(4-{1-[3-(difluoromethyl)phenyl]-1-hydroxyethyl}-2-fluorophenyl)-5-fluoroimidazo[1,5-a]pyrazin-3-yl]hexahydroindolizin-3(2H)-one] | 5.41 | 1.6 |  |
| COc1cc(C(C)(O)c2cccc(C(F)(F)F)c2)ccc1-c1nc([C@@H]2CC[C@@H]3N(C2)C(=O)CC3(C)C)n2ccnc(N)c12 (stereo partly drawn) [Example 209, (6R,8aS)-6-[8-amino-1-(4-{1-hydroxy-1-[3-(trifluoromethyl)phenyl]ethyl}-2-methoxyphenyl)imidazo [1,5-a]pyrazin-3-yl]-1,1-dimethylhexahydroindolizin-3(2H)-one] | 1.12 | 26 |  |
| COc1cc(C(O)(c2cccc(C(F)F)c2)C(F)(F)F)ccc1-c1nc([C@@H]2CC[C@H]3CCC(=O)N3C2)n2ccnc(N)c12 (stereo partly drawn) [Example 210, (6R,8aS)-6-[8-amino-1-(4-{1-[3-(difluoromethyl)phenyl]-2,2,2-trifluoro-1-hydroxyethyl}-2-methoxyphenyl)imidazo [1,5-a]pyrazin-3-yl]hexahydroindolizin-3(2H)-one] | 2.7 | 67 |  |
| COc1cc(C(O)(c2cccc(C(F)F)c2)C(F)(F)F)ccc1-c1nc([C@@H]2CC[C@H]3CCC(=O)N3C2)n2ccnc(N)c12 (stereo partly drawn) [Example 211, (6R,8aS)-6-[8-amino-1-(4-{1-[3-(difluoromethyl)phenyl]-2,2,2-trifluoro-1-hydroxyethyl}-2-methoxyphenyl)imidazo [1,5-a]pyrazin-3-yl]hexahydroindolizin-3(2H)-one] | 7.03 | 0.6 |  |
| CCOc1cc([C@@](C)(O)c2cccc(C(F)(F)F)c2)cc(F)c1-c1nc([C@@H]2CC[C@H]3CCC(=O)N3C2)n2ccnc(N)c12 [Example 212, (6R,8aS)-6-[8-amino-1-(2-ethoxy-6-fluoro-4-{(1S)-1-hydroxy-1-[3-(trifluoromethyl)phenyl]ethyl}phenyl)imidazo [1,5-a]pyrazin-3-yl]hexahydroindolizin-3(2H)-one] |  | 329 | 3.52 |
| CCOc1cc([C@](C)(O)c2cccc(C(F)(F)F)c2)cc(F)c1-c1nc([C@@H]2CC[C@H]3CCC(=O)N3C2)n2ccnc(N)c12 [Example 213, (6R,8aS)-6-[8-amino-1-(2-ethoxy-6-fluoro-4-{(1R)-1-hydroxy-1-[3-(trifluoromethyl)phenyl]ethyl}phenyl)imidazo [1,5-a]pyrazin-3-yl]hexahydroindolizin-3(2H)-one] |  | 0.63 | 6 |
| CCOc1cc(C(O)(c2cccc(C(F)(F)F)c2)C(F)(F)F)ccc1-c1nc([C@@H]2CC[C@H]3CCC(=O)N3C2)n2ccnc(N)c12 (stereo partly drawn) [Example 214, (6R,8aS)-6-[8-amino-1-(2-ethoxy-4-{2,2,2-trifluoro-1-hydroxy-1-[3-(trifluoromethyl)phenyl]ethyl}phenyl)imidazo [1,5-a]pyrazin-3-yl]hexahydroindolizin-3(2H)-one] |  | 4.1 | 3.11 |
| (6R.8aS)-6-[8-amino-1- (4-{(1R)-1-[3- (difluoromethyl)phenyl]-1- hydroxyethyl}phenyl)- 5-fluoroimidazo[1,5- a]pyrazin-3-yl]-2,2- dimethylhexahydroindolizin- 3(2H)-one [Example 178] | 4.61 | 1.3 |  |
